One block for each compound: values may come before it. Residues, ends and D or L forms follow the SMILES beside them. *: point of attachment. Biotin = O=C1N[C@H]2[C@H](CS[C@H]2CCCCC(=O)*)N1; Ahx = NCCCCCC(=O)O
Columns and labels:
[1] = tested on: TRAMP C-2 mouse prostate tumor cells; experiment: Prostate tumor growth in mice, peptide by oral gavage; assay type: in vivo; conditions: C57BL6 mice, TRAMP C-2 tumors, 50 μg/dose oral gavage twice per week, vs water control
Method: (§1) For each of the experiments, descriptive statistics (means and standard deviations) for tumor volumes were calculated over time for each experimental group (i.e. Experiment 1: Control vs. BioE4 (FIG. 1); Experiment 2: PBS, Bio96, and BioE4-03 (FIG. 5)). Since tumor growth tends to be curvilinear, general linear mixed models (GLMMs) were created to estimate treatment-specific growth curves over time and to make comparisons between the peptide treatments and control. Separate GLMMs were constructed for each experiment, and each GLMM included random effects for each mouse, to control for the fact that the repeated volume measurements within a given mouse were correlated with one another. Tumor volume served as the dependent variable in each model, while time (in days), time^2, treatment, treatment×time, and treatment×time^2 were included as independent variables. Using these models, the estimated mean tumor volumes at specific selected time points and the mean rate of change in the tumor volumes at specific selected time points were compared. If a mouse's tumor grew too large, it was sacrificed; however, all tumor volumes measured prior to sacrifice were included in the modeling process. […]
Two groups of wild type C57BL6 mice from Jax Labs were injected with TRAMP C-2 mouse prostate tumor cells in the right flank. […] Tumors were measured 3 times/week. […]

[2] = tested on: fibroblasts from lungs of patients with Idiopathic Pulmonary Fibrosis (IPF); experiment: SMA and Collagen 1A2 RNA in IPF lung fibroblasts; assay type: cell-based, human; conditions: IPF lung fibroblasts (FIG. 17)
[3] = tested on: fibroblasts from lungs of patients with systemic sclerosis (SSc); experiment: SMA and Collagen 1A2 RNA in SSc lung fibroblasts; assay type: cell-based, human
Method: Fibroblasts were treated with TGFbeta with or without peptide Bio96-17 for 48 hours. RNA was extracted and levels of alpha smooth muscle actin (SMA) measured by qRT-PCR.
SSc fibroblasts were treated with 10 μg/ml BioE4-03 for 72 hours. RNA was extracted and used to measure SMA and Collagen 1A2.

[4] = tested on: me-38 colon adenocarcinoma tumor cells; experiment: Colon adenocarcinoma tumor growth in mice, peptide by oral gavage; assay type: in vivo; conditions: sMIC tolerant transgenic mice, 100 μg/mouse oral gavage twice/week
Method: as §1, with “Tumor volume served as the dependent variable in each model, while time (in days), time^2, treatment, treatment×time, and treatment×time^2 were included as independent variables. Using these models, the estimated mean tumor volumes at specific selected time points and the mean rate of change in the tumor volumes at specific selected time points were compared.” left out
sMIC tolerant transgenic (MB481 strain) mice (Liu et al, Perturbation of NK cell peripheral homeostasis accelerates prostate carcinoma metastasis. J. Clin. Invest. 123:4410, 2013) were injected with 1×10^5 me-38 colon adenocarcinoma tumor cells via subcutaneous injection When tumor size reached approximately 75 mm^3, treatment was started. start treatment at four group. […] Tumor volume was measured 3 times per week. […]

tumors = experiment: Histologic analysis of tumors (H&E, Masson Trichrome); assay type: in vivo, mouse
Method: Histological analysis of tumors treated with vehicle alone, or with BioE4-03 or Bio96 peptides was performed.

Compound: Biotin-SYCETWRTEAPSATGQASSLLGGRLLGQSAASCHHAYIVLCIENSFMT-NH2 (cysteines drawn unpaired) [BioE4]
mean rate of increase in the tumor volume on day 15 (model-based estimate) [1]: significantly (p=0.02) greater in the Control group when compared to the BioE4 group
mean tumor volume at day 15 (model-based estimate) [1]: significantly (p=0.0001) greater in the Control group when compared to the BioE4 group

Coll1A2 levels [2]: trend towards decrease
SMA levels [2]: trend towards decrease
Coll1A2 levels ([3]; 10 μg/ml, 72 hours (FIG. 16)): significant reduction
SMA levels ([3]; 10 μg/ml, 72 hours (FIG. 16)): significant reduction
Compound: CC(C)C[C@H](NC(=O)[C@H](CC(C)C)NC(=O)[C@H](CCCNC(=N)N)NC(=O)CNC(=O)CNC(=O)[C@H](CC(C)C)NC(=O)[C@H](CC(C)C)NC(=O)[C@H](CO)NC(=O)[C@H](CO)NC(=O)[C@H](C)NC(=O)[C@H](CCC(N)=O)NC(=O)CNC(=O)[C@@H](NC(=O)[C@H](C)NC(=O)[C@H](CO)NC(=O)[C@@H]1CCCN1C(=O)[C@H](C)NC(=O)[C@H](CCC(=O)O)NC(=O)[C@@H](NC(=O)[C@H](CCCNC(=N)N)NC(=O)[C@H](Cc1c[nH]c2ccccc12)NC(=O)[C@@H](NC(=O)[C@H](CCC(=O)O)NC(=O)[C@H](CS)NC(=O)[C@H](Cc1ccc(O)cc1)NC(=O)[C@H](CO)NC(=O)CCCCCNC(=O)CCCC[C@@H]1SC[C@@H]2NC(=O)N[C@@H]21)[C@@H](C)O)[C@@H](C)O)[C@@H](C)O)C(=O)NCC(=O)N[C@@H](CCC(N)=O)C(=O)N[C@@H](CO)C(=O)N[C@@H](C)C(=O)N[C@@H](C)C(=O)N[C@@H](CO)C(=O)N[C@@H](CS)C(=O)N[C@@H](Cc1c[nH]cn1)C(=O)N[C@@H](Cc1c[nH]cn1)C(=O)N[C@@H](C)C(N)=O [BioE4-03] ({Biotin-Ahx}-SYCETWRTEAPSATGQASSLLGGRLLGQSAASCHHA-NH2)

Coll1A2 levels ([3]; Bio96-17 treatment (FIG. 15)): significant reduction
SMA levels ([3]; Bio96-17 treatment (FIG. 15)): significant reduction
Compound: CC(C)C[C@H](NC(=O)[C@H](CC(C)C)NC(=O)[C@H](CCCNC(=N)N)NC(=O)CNC(=O)CNC(=O)[C@H](CC(C)C)NC(=O)[C@H](CC(C)C)NC(=O)[C@H](CO)NC(=O)[C@H](CO)NC(=O)[C@H](C)NC(=O)[C@H](CCC(N)=O)NC(=O)CNC(=O)[C@@H](NC(=O)[C@H](C)NC(=O)CCCC[C@@H]1SC[C@@H]2NC(=O)N[C@@H]21)[C@@H](C)O)C(=O)NCC(=O)N[C@@H](CCC(N)=O)C(=O)N[C@@H](CO)C(=O)N[C@@H](C)C(=O)N[C@@H](C)C(=O)N[C@@H](CO)C(=O)N[C@@H](CS)C(=O)N[C@@H](Cc1c[nH]cn1)C(=O)N[C@@H](Cc1c[nH]cn1)C(=O)N[C@@H](C)C(N)=O [Bio96-17] (Biotin-ATGQASSLLGGRLLGQSAASCHHA-NH2)

Compound: CC(C)C[C@H](NC(=O)[C@H](CC(C)C)NC(=O)[C@H](CO)NC(=O)[C@H](CO)NC(=O)[C@H](C)NC(=O)[C@H](CCC(N)=O)NC(=O)CNC(=O)[C@@H](NC(=O)[C@H](C)NC(=O)CCCC[C@@H]1SC[C@@H]2NC(=O)N[C@@H]21)[C@@H](C)O)C(N)=O [Bio96, Biotin-NH2-ATGQASSLL-CONH2] (Biotin-ATGQASSLL-NH2)
mean rate of increase in the tumor volume at day 21 (model-based estimate) ([4]; PBS control 151.1 mm^3 per day): 90.6 mm^3 per day
mean tumor volume at day 21 (model-based estimate) ([4]; PBS control 1492.1 mm^3): 871.4 mm^3
tumor cell arrangement (tumors; H&E staining, tumors from treated mice): looser cell arrangement
collagen bundles in the tumors (tumors; Masson Trichrome stain, compared to vehicle treated mice): thinner collagen bundles

Reference: US20240390465A1, “Endostatin Peptides for the Treatment of Tumors, Fibrosis and Acute Lung Injury” (MUSC Foundation for Research Development, priority 2021, published 2024)
